Results reported in PubChem BioAssay (NCI).
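The compound was tested at five concentrations on cells cultured in 96-well plates, with a 48-hour exposure period. TGI: concentration producing complete growth inhibition.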

Tests used:
Test in all cases: NCI tumour cell line growth inhibition, 48 h
HCT-116 colon = tested on: HCT-116 colon
U251 CNS = tested on: U251 CNS
NCI-H23 lung = tested on: NCI-H23 lung
SN12C renal = tested on: SN12C renal
UO-31 renal = tested on: UO-31 renal
A549 NSCLC = tested on: A549 NSCLC
SF-268 CNS = tested on: SF-268 CNS
ACHN renal = tested on: ACHN renal
T-47D breast = tested on: T-47D breast
NCI-H522 lung = tested on: NCI-H522 lung
MCF7 breast = tested on: MCF7 breast
HS 578T breast = tested on: HS 578T breast
SF-295 CNS = tested on: SF-295 CNS
OVCAR-4 ovarian = tested on: OVCAR-4 ovarian
SK-MEL-5 melanoma = tested on: SK-MEL-5 melanoma
TK-10 renal = tested on: TK-10 renal
OVCAR-8 ovarian = tested on: OVCAR-8 ovarian
SNB-75 CNS = tested on: SNB-75 CNS
M14 melanoma = tested on: M14 melanoma
SK-MEL-28 melanoma = tested on: SK-MEL-28 melanoma
UACC-62 melanoma = tested on: UACC-62 melanoma
NCI-H226 lung = tested on: NCI-H226 lung
MDA-N = tested on: MDA-N
NCI/ADR-RES ovarian = tested on: NCI/ADR-RES ovarian
SNB-19 CNS = tested on: SNB-19 CNS
LOX IMVI melanoma = tested on: LOX IMVI melanoma
HOP-92 NSCLC = tested on: HOP-92 NSCLC
786-0 renal = tested on: 786-0 renal
RPMI-8226 leukemia = tested on: RPMI-8226 leukemia
COLO 205 colon = tested on: COLO 205 colon
SK-OV-3 ovarian = tested on: SK-OV-3 ovarian
MALME-3M melanoma = tested on: MALME-3M melanoma
NCI-H460 lung = tested on: NCI-H460 lung
MDA-MB-231 breast = tested on: MDA-MB-231 breast
A498 renal = tested on: A498 renal
IGROV1 ovarian = tested on: IGROV1 ovarian
MDA-MB-435 = tested on: MDA-MB-435
SW-620 colon = tested on: SW-620 colon
PC-3 prostate = tested on: PC-3 prostate
KM12 colon = tested on: KM12 colon
HOP-62 NSCLC = tested on: HOP-62 NSCLC
SK-MEL-2 melanoma = tested on: SK-MEL-2 melanoma
DU-145 prostate = tested on: DU-145 prostate
CAKI-1 renal = tested on: CAKI-1 renal
HT29 colon = tested on: HT29 colon
RXF 393 renal = tested on: RXF 393 renal
SF-539 CNS = tested on: SF-539 CNS
OVCAR-3 ovarian = tested on: OVCAR-3 ovarian
OVCAR-5 ovarian = tested on: OVCAR-5 ovarian
K-562 leukemia = tested on: K-562 leukemia
MOLT-4 leukemia = tested on: MOLT-4 leukemia
BT-549 breast = tested on: BT-549 breast
HCT-15 colon = tested on: HCT-15 colon
SR leukemia = tested on: SR leukemia
UACC-257 melanoma = tested on: UACC-257 melanoma
EKVX NSCLC = tested on: EKVX NSCLC
HCC-2998 colon = tested on: HCC-2998 colon
CCRF-CEM leukemia = tested on: CCRF-CEM leukemia
HL-60(TB) leukemia = tested on: HL-60(TB) leukemia

Measured: TGI

O=C1Cc2c([nH]c3ccc(Cl)cc23)-c2ccccc2N1
> 100 µM: HCT-116 colon | U251 CNS | NCI-H23 lung | SN12C renal | UO-31 renal | A549 NSCLC | SF-268 CNS | ACHN renal | T-47D breast | NCI-H522 lung | MCF7 breast | HS 578T breast | SF-295 CNS | OVCAR-4 ovarian | SK-MEL-5 melanoma | TK-10 renal | OVCAR-8 ovarian | SNB-75 CNS | M14 melanoma | SK-MEL-28 melanoma | UACC-62 melanoma | NCI-H226 lung | MDA-N | NCI/ADR-RES ovarian | SNB-19 CNS | LOX IMVI melanoma | HOP-92 NSCLC | 786-0 renal | RPMI-8226 leukemia | COLO 205 colon | SK-OV-3 ovarian | MALME-3M melanoma | NCI-H460 lung | MDA-MB-231 breast | A498 renal | IGROV1 ovarian | MDA-MB-435

CNC(=O)CNC(=O)CCC(=O)OC
> 100 µM: HCT-116 colon | U251 CNS | SW-620 colon | NCI-H23 lung | SN12C renal | UO-31 renal | A549 NSCLC | SF-268 CNS | PC-3 prostate | KM12 colon | ACHN renal | HOP-62 NSCLC | T-47D breast | NCI-H522 lung | MCF7 breast | SK-MEL-2 melanoma | SF-295 CNS | OVCAR-4 ovarian | SK-MEL-5 melanoma | TK-10 renal | OVCAR-8 ovarian | DU-145 prostate | M14 melanoma | SK-MEL-28 melanoma | UACC-62 melanoma | CAKI-1 renal | MDA-N | HT29 colon | NCI/ADR-RES ovarian | SNB-19 CNS | 786-0 renal | RXF 393 renal | SF-539 CNS | COLO 205 colon | OVCAR-3 ovarian | OVCAR-5 ovarian | K-562 leukemia | SK-OV-3 ovarian | NCI-H460 lung | MDA-MB-231 breast | A498 renal | MOLT-4 leukemia | MDA-MB-435

NC(=Nc1ccc(Cl)cc1)c1ccccc1N
> 100 µM: BT-549 breast | HCT-116 colon | U251 CNS | SW-620 colon | NCI-H23 lung | HCT-15 colon | SR leukemia | UO-31 renal | A549 NSCLC | SF-268 CNS | PC-3 prostate | KM12 colon | ACHN renal | HOP-62 NSCLC | NCI-H522 lung | MCF7 breast | HS 578T breast | SF-295 CNS | OVCAR-4 ovarian | SK-MEL-5 melanoma | TK-10 renal | OVCAR-8 ovarian | UACC-257 melanoma | DU-145 prostate | SNB-75 CNS | M14 melanoma | SK-MEL-28 melanoma | UACC-62 melanoma | CAKI-1 renal | NCI-H226 lung | MDA-N | HT29 colon | NCI/ADR-RES ovarian | SNB-19 CNS | LOX IMVI melanoma | HOP-92 NSCLC | 786-0 renal | RPMI-8226 leukemia | RXF 393 renal | EKVX NSCLC | COLO 205 colon | OVCAR-3 ovarian | OVCAR-5 ovarian | K-562 leukemia | SK-OV-3 ovarian | MALME-3M melanoma | HCC-2998 colon | NCI-H460 lung | MDA-MB-231 breast | A498 renal | IGROV1 ovarian | CCRF-CEM leukemia | MOLT-4 leukemia | MDA-MB-435 | HL-60(TB) leukemia
